Drawing on ChEMBL document CHEMBL1129375, “Design and synthesis of a series of non-peptide high-affinity human corticotropin-releasing factor1 receptor antagonists” (J Med Chem, 1996), this text covers Ki and IC50 for 10 compounds.

The Ki is the dissociation constant of the complex between target and ligand, obtained from inhibition or displacement. A higher Ki goes with weaker binding. Usually IC50 stands for the concentration needed to halve the response being measured. A low value points to greater potency.

A value given as a limit tells only on which side of the number the result lay.

Assay [1] deals with T1, Corticotropin-releasing factor receptor 1 (Homo sapiens, UniProt P34998).
T1 sequence (P34998 whole entry): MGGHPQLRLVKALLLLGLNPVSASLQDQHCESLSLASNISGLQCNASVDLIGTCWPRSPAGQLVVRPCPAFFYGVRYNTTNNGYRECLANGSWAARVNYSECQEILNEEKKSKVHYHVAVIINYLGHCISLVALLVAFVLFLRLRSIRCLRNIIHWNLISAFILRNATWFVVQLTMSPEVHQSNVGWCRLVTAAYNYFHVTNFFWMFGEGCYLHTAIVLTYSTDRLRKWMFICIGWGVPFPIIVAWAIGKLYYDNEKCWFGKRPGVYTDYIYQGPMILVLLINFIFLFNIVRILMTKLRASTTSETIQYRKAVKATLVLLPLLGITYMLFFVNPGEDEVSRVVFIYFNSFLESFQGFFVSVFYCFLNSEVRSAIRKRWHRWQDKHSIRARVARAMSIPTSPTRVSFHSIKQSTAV
The assay is described as follows: Inhibition of [125I]CRF binding to human Corticotropin releasing factor receptor 1 tested at 6-12 doses.

The species entered for assay [2] is Homo sapiens. The assay is described as follows: Compound was evaluated for the inhibition of CRF-stimulated cyclic adenosine monophosphate production. It is filed as functional, organism-based.

Take `CCCN(CC1CC1)c1cc(Nc2c(Cl)cc(Cl)cc2Cl)ncn1`: the Ki in assay [1] was more than 10000 nM.

For `CCCN(CC1CC1)c1nc(C)nc(Nc2c(Cl)cc(Cl)cc2Cl)c1CC`, the Ki in assay [1] came to 3.8 nM.

Take `CCCN(CC1CC1)c1nc(C)nc(N(C)c2c(Cl)cc(Cl)cc2Cl)c1C`: in assay [1], the Ki came to 150 nM.

Turning to `CCCN(CCC)c1nc(C)nc(Nc2c(Cl)cc(Cl)cc2Cl)c1C`, the inhibition constant Ki in assay [1] turned out to be 2.5 nM. It took 250 nM to reach half-maximal inhibition in assay [2] (IC50).

In the case of `CCCN(CC1CC1)c1cc(C)nc(Nc2c(Cl)cc(Cl)cc2Cl)n1`, the inhibition constant (Ki) in assay [1] turned out to be 70 nM.

`CCCN(CC1CC1)c1nc(C)cc(Nc2c(Cl)cc(Cl)cc2Cl)n1`: the inhibition constant Ki in assay [1] is more than 10000 nM.

Compound `CCCN(CC1CC1)c1cc(Nc2c(Cl)cc(Cl)cc2Cl)nc(C)n1` registered a Ki in assay [1] of 30 nM. In assay [2], this compound returned a half-maximal inhibitory concentration (IC50) of 3700 nM.

With `CCCN(CC1CC1)c1nc(C)nc(Nc2c(Cl)cc(Cl)cc2Cl)c1C`, in assay [1], the inhibitory constant (Ki) was 2.3 nM.

On to `CCCN(CC1CC1)c1nc(C)nc(Nc2c(Cl)cc(Cl)cc2Cl)c1Cl`, for which, in assay [1], the Ki was 1.7 nM. The 50% inhibitory concentration (IC50) in assay [2] is 100 nM.

`CCCN(CC1CC1)c1nc(C)nc(Nc2c(Cl)cc(Cl)cc2Cl)c1Br` gave a Ki in assay [1] of 2 nM.
